Source: ChEMBL document CHEMBL1153137, “Improving the developability profile of pyrrolidine progesterone receptor partial agonists” (Bioorg Med Chem Lett, 2010)

Columns and labels:
[1] = in vivo; settings: rat, iv
[2] = in vivo; settings: rat, iv; remark: listed apart in the source
[3] = in vivo; settings: rat, po, 4.2 mg/kg
[4] = in vivo; settings: rat, iv; remark: listed apart in the source
[5] = in vivo; settings: rat, iv; remark: listed apart in the source

Cc1ccccc1CN(c1ccc(C#N)c(Cl)c1)[C@H]1CCN(S(C)(=O)=O)C1
half-life [1]: 1.6 h
clearance [2]: 5.88 L/h/kg
bioavailability [3]: 100%
Cmax [4]: 0.221 µg/mL
Vd [5]: 12 L/kg
